Converted amounts (≈) assume the structure as drawn.
Experiments:
[1] = test system: fibrosarcoma (line HT-1080); settings: fibrosarcoma line HT-1080; cited from earlier work
Mycobaterium phlei = settings: cited from earlier work
[2] = test system: Thermoactinomyces intermedius; settings: cited from earlier work
[3] = test system: uterus colon carcinoma (line L5-26); settings: uterus colon carcinoma line L5-26; cited from earlier work
Mycobacterium smegmatis = settings: cited from earlier work
[4] = test system: Staphylococcus epidermidis; settings: cited from earlier work
Staphylococcus aureus [5] = settings: cited from earlier work
Corynebacterium equii = settings: cited from earlier work
Pseudomonas aeruginosa [6] = settings: cited from earlier work
T. cruzi trypomastigotes = assay: Effects against T. cruzi trypomastigotes cultures; assay type: cell-based, Trypanosoma cruzi
Description: FIG. 2 are recorded ID50 data related to trypomastigotes cultures (one of the growing stages of Trypanosoma cruzi (T.cruzi)) also to the compounds DCBEN, DHCA, E and mixture E+DPB and the effects of said compounds extracted from propolis trypomastigotes of T.cruzi (in mg/mL). […] The same result for Violet Crystal is 0.205 mg/mL, as previously mentioned. The results for insulated compounds are greater than the Violet Crystal.

Pseudomonas aeruginosa [7] = assay: Antibacterial activity, inhibition halos in culture; assay type: cell-based
From the text: (§1) The insulated compounds DCBEN, DHCA, E and mixture of E+DPB have their antibacterial properties tested in cultures of E.coli, Pseudomonas aeruginosa, Staphylococcus aureus and Streptococcus faecalis. Inhibition halos (in mm) and the obtained data recorded as in FIG. 1.
(§2) Antibacterial activity of the compounds K, G1, G2 e L2 has been evaluated in cultures of E.coli, Pseudomonas aeruginosa, Staphylococcus aureus and Streptococcus faecalis. Inhibition halos have been measured (mm) and the data recorded as in FIG. 1. S.aureus, S.faecalis e E.coli, are sensitive to the tested compounds, just varying the halos, the compound G2 has the most toxity in cultures of S.aureus e S.faecalis. None of the tested compounds had effect in P.aeruginosa.

Escherichia coli = assay: as above; assay type: cell-based
From the text: as §1, §2

Streptococcus faecalis = assay: as above; assay type: cell-based; settings: Streptococcus faecalis culture
From the text: as §1, §2

Staphylococcus aureus [8] = assay: as above; assay type: cell-based; settings: Staphylococcus aureus culture
From the text: as §1, §2

Microsporeum gypseum = settings: cited from earlier work
[9] = test system: Micrococcus lysodeikticus; settings: cited from earlier work
A.benhamiae = settings: cited from earlier work
B.subtilis = settings: cited from earlier work
[10] = insulated labdan acids; cited from earlier work

Row | SMILES | ED50 (cytotoxic dosage—50%) [1] [µg/mL] | MIC (Mycobaterium phlei) [µg/mL] | MIC [2] [µg/mL] | ED50 (cytotoxic dosage—50%) [3] | MIC (Mycobacterium smegmatis) [µg/mL] | CIM [4] [µg/mL] | MIC (Staphylococcus aureus [5]) [µg/mL] | CIM (Corynebacterium equii) [μg/m/L] | MIC (Pseudomonas aeruginosa [6]) [µg/mL] | ID50/24 h (T. cruzi trypomastigotes) [µg/mL] | Antibacterial activty, inhibition halo (Pseudomonas aeruginosa [7]) | Antibacterial effect in words (Escherichia coli; E.coli culture) | Antibacterial activty, inhibition halo (Escherichia coli; Escherichia coli culture) | Antibacterial activty, inhibition halo (Streptococcus faecalis) | Antibacterial activty, inhibition halo (Staphylococcus aureus [8]) | MIC (Microsporeum gypseum) | CIM [9] [µg/mL] | MIC (A.benhamiae) | CIM (B.subtilis) [µg/mL] | Antibacterial activity by bioautography [10]
1 | CC(C)=CCc1cc(C=CC(=O)O)cc(CC=C(C)C)c1O [DHCA, 3,5-diprenyl-4-hydroxycinnamic acid] | 45.47 (≈ 151 µM) | 62.5 (≈ 208 µM) | 62.5 (≈ 208 µM) | 59,32 μg/mL | 31.3 (≈ 104 µM) | 62.5 | 62.5 (≈ 208 µM) | 31.3 | 31.3 (≈ 104 µM) | 932 ± 46 (≈ 3100 µM) | Ø | did not present inhibition activity | Ø | + (+ halo < or = to 8 mm) | + (+ halo < or = to 8 mm) | 7,8 μg/mL | 31.3 | 15,6 μg/mL | 31.3 | –
2 | C=C1CC[C@@H]2[C@](C)(CCC[C@]2(C)C(=O)O)[C@H]1CC/C(C)=C/CO [[b], isocupressic acid] | – | – | – | – | – | – | – | – | – | – | – | – | – | – | – | – | – | – | – | most active

Source: patent US20040126437A1, “Typing natural products” (priority 2000, published 2004)
